Measured values from patent US7479564B2, “Aryl or heteroaryl fused imidazole compounds as anti-inflammatory and analgesic agents” (RaQualia Pharma Inc., priority 2000, dated 2009).

| SMILES | melting point [°C] |
| --- | --- |
| CCc1nc2cc(COC)c(Cl)cc2n1-c1ccc(CCOC(=O)NS(=O)(=O)c2ccc(C)cc2)cc1 | 174.5 |
| CCc1nc2cc(C(N)=O)c(Cl)cc2n1-c1ccc(CCOC(=O)NS(=O)(=O)c2ccc(C)cc2)cc1 | 170 to 175 |
| Cc1ccc(S(=O)(=O)NC(=O)OCCc2ccc(-n3c(CCC(=O)c4ccccn4)nc4cc(C(F)(F)F)c(Cl)cc43)cc2)cc1 | 233.6 |
| Cc1ccc(S(=O)(=O)NC(=O)OCCc2ccc(-n3c(CCC(=O)N4CCCCC4)nc4cc(C(F)(F)F)c(Cl)cc43)cc2)cc1 | 210 |
| CCc1nc2cc(CO)c(Cl)cc2n1-c1ccc(CCOC(=O)NS(=O)(=O)c2ccc(C)cc2)cc1 [Example 337, 2-{4-[6-CHLORO-2-ETHYL-5-(HYDROXYMETHYL)-1H-BENZIMIDAZOL-1-YL]PHENYL}ETHYL (4-METHYLPHENYL)SULFONYLCARBAMATE] | 172.7 |
| Cc1ccc(S(=O)(=O)NC(=O)OCCc2ccc(-n3c(CCC(=O)c4cccnc4)nc4cc(C(F)(F)F)c(Cl)cc43)cc2)cc1 | 89 to 95 |
| Cc1ccc(S(=O)(=O)NC(=O)OCCc2ccc(-n3c(CCC(=O)N4CCCC4)nc4cc(C(F)(F)F)c(Cl)cc43)cc2)cc1 [Example 363, 2-{4-[6-CHLORO-2-[3-OXO-3-(1-PYRROLIDINYL)PROPYL]-5-(TRIFLUOROMETHYL)-1H-BENZIMIDAZOL-1-YL]PHENYL}ETHYL (4-METHYLPHENYL)SULFONYLCARBAMATE] | 98 to 105 |
| Cc1ccc(S(=O)(=O)NC(=O)OCCc2ccc(-n3c(CCCN4CCCC4=O)nc4cc(C(F)(F)F)c(Cl)cc43)cc2)cc1 | 85 to 90 |
| CCc1nc2c(C)cc(C)nc2n1-c1ccc(CC(C)OC(=O)NS(=O)(=O)c2ccc(C)cc2)cc1 (stereo not shown) [Example 7, 2-[4-(2-ETHYL-5,7-DIMETHYL-3H-IMIDAZO[4,5-b]PYRIDIN-3-YL)PHENYL]-1-METHYLETHYL (4-METHYLPHENYL)SULFONYLCARBAMATE] | 108 |
| CCc1nc2cc(C(=O)NC)c(Cl)cc2n1-c1ccc(CCOC(=O)NS(=O)(=O)c2ccc(C)cc2)cc1 [Example 334, 2-(4-{6CHLORO-2-ETHYL-5-[(METHYLAMINO)CARBONYL]-1H-BENZIMIDAZOL-1-YL}PHENYL)ETHYL (4-METHYLPHENYL)SULFONYLCARBAMATE] | 201 to 204 |
